Laboratory results from ChEMBL document CHEMBL1131908 (Bioorg Med Chem Lett, 1999).

Columns and labels:
Mu-type opioid receptor [1] = biological target: T1, Mu-type opioid receptor (Rattus norvegicus, UniProt P33535); test: Ability to displace [3H]DAMGO from mu opioid receptor
[2] = biological target: T2, Kappa-type opioid receptor (Cavia porcellus, UniProt P41144); test: Ability to displace [3H]U-69593 from kappa opioid receptor
[3] = biological target: T3, Delta-type opioid receptor (Rattus norvegicus, UniProt P33533); test: Ability to displace [3H]DADL from delta opioid receptor
Mu-type opioid receptor [4] = biological target: T1, Mu-type opioid receptor; test: Ability to inhibit binding of [3H]DAMGO to mu opioid receptor
[5] = biological target: T3, Delta-type opioid receptor; test: Ability to inhibit binding of SNC80 to delta opioid receptor
[6] = biological target: T2, Kappa-type opioid receptor; test: Ability to inhibit binding of U-69,593 to kappa opioid receptor
[7] = biological target: Opioid receptors; mu & delta (Homo sapiens) (UniProt P41143+P35372); test: Ratio of binding affinities of mu and delta opioid receptors; assay type: protein assay
Sequence of Opioid receptors; mu & delta (Homo sapiens) (P35372 whole entry, looked up): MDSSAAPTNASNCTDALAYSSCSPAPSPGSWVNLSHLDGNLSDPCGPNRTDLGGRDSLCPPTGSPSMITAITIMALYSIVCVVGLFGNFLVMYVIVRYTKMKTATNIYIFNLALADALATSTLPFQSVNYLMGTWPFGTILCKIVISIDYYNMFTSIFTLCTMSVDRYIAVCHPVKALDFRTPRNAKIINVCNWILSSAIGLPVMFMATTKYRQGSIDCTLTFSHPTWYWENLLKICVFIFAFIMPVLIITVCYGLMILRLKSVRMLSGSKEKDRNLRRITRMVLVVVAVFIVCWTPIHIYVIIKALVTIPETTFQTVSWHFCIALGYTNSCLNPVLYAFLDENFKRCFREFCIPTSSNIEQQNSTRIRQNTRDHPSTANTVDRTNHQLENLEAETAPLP
Sequence of Opioid receptors; mu & delta (Homo sapiens) (P41143 whole entry, looked up): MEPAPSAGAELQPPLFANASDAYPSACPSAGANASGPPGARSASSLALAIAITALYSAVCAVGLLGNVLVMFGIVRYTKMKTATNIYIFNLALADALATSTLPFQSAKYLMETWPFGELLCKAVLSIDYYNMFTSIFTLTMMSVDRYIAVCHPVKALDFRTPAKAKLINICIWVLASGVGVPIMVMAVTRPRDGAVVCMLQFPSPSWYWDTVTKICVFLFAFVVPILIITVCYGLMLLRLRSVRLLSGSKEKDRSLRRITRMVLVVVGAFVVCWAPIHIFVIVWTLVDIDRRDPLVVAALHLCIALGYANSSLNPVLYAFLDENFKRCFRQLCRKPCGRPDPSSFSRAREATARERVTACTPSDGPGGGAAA

T1 sequence (P33535 whole entry): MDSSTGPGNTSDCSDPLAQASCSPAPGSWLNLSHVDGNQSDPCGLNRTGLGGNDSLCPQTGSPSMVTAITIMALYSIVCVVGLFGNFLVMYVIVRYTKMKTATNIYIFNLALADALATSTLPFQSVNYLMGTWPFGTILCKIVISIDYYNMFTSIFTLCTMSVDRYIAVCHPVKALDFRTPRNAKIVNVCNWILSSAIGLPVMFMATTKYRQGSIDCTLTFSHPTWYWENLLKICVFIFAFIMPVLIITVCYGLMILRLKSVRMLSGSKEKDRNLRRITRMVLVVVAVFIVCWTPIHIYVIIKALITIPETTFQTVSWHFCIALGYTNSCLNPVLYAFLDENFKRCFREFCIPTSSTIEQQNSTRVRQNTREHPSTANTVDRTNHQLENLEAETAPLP
T3 sequence (P33533 whole entry): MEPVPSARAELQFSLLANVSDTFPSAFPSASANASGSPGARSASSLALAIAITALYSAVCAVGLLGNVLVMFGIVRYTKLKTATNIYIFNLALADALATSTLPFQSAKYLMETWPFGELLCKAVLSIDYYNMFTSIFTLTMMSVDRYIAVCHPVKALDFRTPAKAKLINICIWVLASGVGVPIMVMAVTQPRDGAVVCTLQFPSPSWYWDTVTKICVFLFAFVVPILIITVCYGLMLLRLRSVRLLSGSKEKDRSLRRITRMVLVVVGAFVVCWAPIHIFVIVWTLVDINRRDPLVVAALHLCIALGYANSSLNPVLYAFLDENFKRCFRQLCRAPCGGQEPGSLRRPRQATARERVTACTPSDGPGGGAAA
T2 sequence (P41144 whole entry): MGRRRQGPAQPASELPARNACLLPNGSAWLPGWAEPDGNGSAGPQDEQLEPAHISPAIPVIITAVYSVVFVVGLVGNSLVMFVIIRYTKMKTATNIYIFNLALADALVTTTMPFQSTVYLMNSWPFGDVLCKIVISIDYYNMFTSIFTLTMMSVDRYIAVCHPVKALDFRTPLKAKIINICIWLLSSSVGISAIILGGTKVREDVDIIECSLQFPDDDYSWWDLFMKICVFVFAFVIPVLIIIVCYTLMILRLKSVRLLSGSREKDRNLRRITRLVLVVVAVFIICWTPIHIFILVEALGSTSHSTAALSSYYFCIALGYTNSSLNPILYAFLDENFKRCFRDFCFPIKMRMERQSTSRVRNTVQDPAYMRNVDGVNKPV

COc1ccc2c3c1OC1c4[nH]c5ccccc5c4C[C@@]4(O)[C@@H](C2)N(CC2CC2)CC[C@]314 (some centres undefined)
Ki (Mu-type opioid receptor [1]): 2510 nM | Ki [2]: 3910 nM | Ki [3]: 6.57 nM | Ki (Mu-type opioid receptor [4]): 411 nM | Ki [5]: 9 nM | Ki [6]: 1760 nM

O[C@@]12Cc3c([nH]c4ccccc34)C3Oc4c(OCCc5ccccc5)ccc5c4[C@@]31CCN(CC1CC1)[C@@H]2C5 (some centres undefined)
Ki (Mu-type opioid receptor [1]): > 6250 nM | Ki [2]: > 7040 nM | Ratio [7]: 7 | Ki [3]: 1040 nM

Oc1ccc2c3c1O[C@H]1c4[nH]c5ccccc5c4C[C@@]4(O)[C@@H](C2)N(CC2CC2)CC[C@]314 [NALTRINDOLE]
Ki [5]: 0.062 nM

O[C@@]12Cc3c([nH]c4ccccc34)C3Oc4c(OCCCc5ccccc5)ccc5c4[C@@]31CCN(CC1CC1)[C@@H]2C5 (some centres undefined)
Ki (Mu-type opioid receptor [1]): > 6250 nM | Ki [2]: > 5320 nM | Ratio [7]: 54 | Ki [3]: 99 nM

O[C@@]12Cc3c([nH]c4ccccc34)C3Oc4c(OCc5ccccc5)ccc5c4[C@@]31CCN(CC1CC1)[C@@H]2C5 (some centres undefined)
Ki (Mu-type opioid receptor [1]): 396 nM | Ki [2]: 728 nM | Ratio [7]: 4 | Ki [3]: 103 nM
